Data published in the supplement of paper PMC10307832.

What was measured:
Assay in all cases: relative viability (nuclei count vs DMSO), 5 days (fraction); higher = more cells survive
[1] = compound: Cc1ccc2nc(NCCN)c3ncc(C)n3c2c1 + COc1cccc2cc(-c3nc([C@H]4CC[C@H](C(=O)O)CC4)n4ncnc(N)c34)[nH]c12 [OSI-027] (partner 0.5 µM)
In short: (§1)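 Cells from lung cancer lines were seeded into 1536-well plates and, one day later, dosed by pin tool. Treatments were either a single drug or a fixed dose of an anchor drug with five library-drug doses (not always all listed) in √10 steps. After 5 days, nuclei were stained in a one-step fixation (final 0.05% Triton X-100, 1% formaldehyde, 1 ug/ml Hoechst) and counted on 4× images, and relative viability is the treated-to-vehicle nuclei ratio, as the median of duplicate plates.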

[2] = compound: Cc1ccc2nc(NCCN)c3ncc(C)n3c2c1 + CS(=O)(=O)N1CCN(Cc2cc3nc(-c4cccc5[nH]ncc45)nc(N4CCOCC4)c3s2)CC1 [Pictilisib] (partner 1 µM)
In short: as §1

[3] = compound: O=C(/C=C/c1ccccc1)NC(NC(=S)Nc1cccc2cccnc12)C(Cl)(Cl)Cl [Salubrinal] + CS(=O)(=O)CCNCc1ccc(-c2ccc3ncnc(Nc4ccc(OCc5cccc(F)c5)c(Cl)c4)c3c2)o1 [Lapatinib] (partner 2 µM)
In short: as §1

[4] = compound: O=C(/C=C/c1ccccc1)NC(NC(=S)Nc1cccc2cccnc12)C(Cl)(Cl)Cl [Salubrinal] + Cc1nc(Nc2ncc(C(=O)Nc3c(C)cccc3Cl)s2)cc(N2CCN(CCO)CC2)n1 [Dasatinib] (partner 0.075 µM)
In short: as §1

Row | Cell Line | relative viability ([1]; first compound 0.04 µM) | relative viability ([1]; first compound 0.1265 µM) | relative viability ([1]; first compound 0.4 µM) | relative viability ([1]; first compound 1.265 µM) | relative viability ([1]; first compound 4 µM) | relative viability ([2]; first compound 0.04 µM) | relative viability ([2]; first compound 0.1265 µM) | relative viability ([2]; first compound 0.4 µM) | relative viability ([2]; first compound 1.265 µM) | relative viability ([2]; first compound 4 µM) | relative viability ([3]; first compound 0.08 µM) | relative viability ([3]; first compound 0.253 µM) | relative viability ([3]; first compound 0.8 µM) | relative viability ([3]; first compound 2.53 µM) | relative viability ([3]; first compound 8 µM) | relative viability ([4]; first compound 0.08 µM) | relative viability ([4]; first compound 0.253 µM) | relative viability ([4]; first compound 0.8 µM) | relative viability ([4]; first compound 2.53 µM) | relative viability ([4]; first compound 8 µM)
1 | SK-MES-1 | 0.66 | 0.659 | 0.59 | 0.668 | 0.632 | 0.411 | 0.345 | 0.341 | 0.378 | 0.35 | 0.488 | 0.405 | 0.499 | 0.42 | 0.437 | 0.428 | 0.32 | 0.408 | 0.371 | 0.271
2 | NCI-H2405 | 0.694 | 0.628 | 0.686 | 0.623 | 0.636 | 0.442 | 0.443 | 0.441 | 0.511 | 0.396 | 1.01 | 1.03 | 1.13 | 1.07 | 1.09 | 0.252 | 0.223 | 0.224 | 0.2 | 0.204
3 | NCI-H1755 | 0.77 | 0.738 | 0.718 | 0.72 | 0.655 | 0.485 | 0.439 | 0.476 | 0.39 | 0.411 | 1.24 | 0.794 | 1.11 | 1.04 | 0.966 | 0.443 | 0.444 | 0.45 | 0.426 | 0.344
4 | HCC-78 | 0.417 | 0.421 | 0.371 | 0.341 | 0.337 | 0.229 | 0.23 | 0.222 | 0.215 | 0.217 | 0.4 | 0.795 | 1.06 | 0.788 | 0.832 | 0.404 | 0.343 | 0.688 | 0.361 | 0.363
5 | LOU-NH91 | 0.795 | 0.726 | 0.708 | 0.762 | 0.668 | 0.528 | 0.534 | 0.514 | 0.56 | 0.475 | 0.71 | 0.776 | 0.776 | 0.778 | 0.752 | 0.565 | 0.481 | 0.672 | 0.56 | 0.499
6 | NCI-H3122 | 1.06 | 0.953 | 0.858 | 0.828 | 0.678 | 0.646 | 0.585 | 0.541 | 0.735 | 0.672 | 1.12 | 1.02 | 1.04 | 1.1 | 0.959 | 0.828 | 0.869 | 0.802 | 0.846 | 0.914
7 | HCC-827 | 0.802 | 0.779 | 0.873 | 0.841 | 0.736 | 0.947 | 0.929 | 0.891 | 0.86 | 1.07 | 0.191 | 0.196 | 0.171 | 0.235 | 0.165 | 0.357 | 0.251 | 0.27 | 0.326 | 0.393
8 | SK-LU-1 | 0.371 | 0.369 | 0.376 | 0.376 | 0.361 | 0.573 | 0.507 | 0.604 | 0.562 | 0.291 | 0.972 | 0.874 | 0.899 | 0.926 | 0.703 | 0.188 | 0.22 | 0.181 | 0.172 | 0.176
9 | NCI-H1975 | 0.709 | 0.692 | 0.711 | 0.716 | 0.523 | 0.317 | 0.281 | 0.245 | 0.261 | 0.242 | 1.04 | 0.594 | 0.967 | 0.928 | 0.798 | 0.363 | 0.369 | 0.376 | 0.374 | 0.3
10 | NCI-H1651 | 0.787 | 0.708 | 0.681 | 0.613 | 0.604 | 0.512 | 0.477 | 0.593 | 0.589 | 0.506 | 1.01 | 0.77 | 1.07 | – | 0.816 | 0.487 | 0.259 | 0.452 | 0.393 | 0.35
11 | LCLC-97TM1 | 0.592 | 0.463 | 0.452 | 0.828 | 0.437 | 0.208 | 0.248 | 0.187 | 0.216 | 0.199 | 1.03 | 0.799 | 0.842 | – | 0.857 | 1.02 | 0.731 | 1.01 | 0.969 | 0.782
12 | NCI-H727 | 0.852 | 0.707 | 0.754 | 0.645 | 0.585 | 0.288 | 0.443 | 0.46 | 0.388 | 0.354 | 1.01 | 0.848 | 0.899 | 0.812 | 0.903 | 0.311 | 0.38 | 0.341 | 0.409 | 0.375
13 | NCI-H1355 | 0.447 | 0.447 | 0.335 | 0.384 | 0.404 | 0.46 | 0.449 | 0.406 | 0.392 | 0.386 | 1.09 | 1.03 | 0.996 | 1.01 | 1.03 | 0.764 | 0.569 | 0.806 | 0.685 | 0.603
14 | HOP-62 | 0.93 | 0.83 | 0.582 | 0.848 | 0.813 | 0.829 | 0.567 | 0.492 | 0.589 | 0.71 | 1.06 | 0.927 | 1.01 | 1.16 | 0.968 | 0.662 | 0.586 | 0.703 | 0.742 | 0.478
15 | NCI-H2085 | 0.839 | 0.819 | 0.658 | 0.906 | 0.742 | 0.515 | 0.436 | 0.429 | 0.551 | 0.422 | 0.684 | 0.793 | 0.898 | 0.854 | 0.737 | 0.228 | 0.227 | 0.258 | 0.249 | 0.246
